Reference: US20070145618A1, “Methods of making microencapsulated delivery vehicles” (Kimberly-Clark Worldwide, Inc., priority 2005, published 2007)
Where two headings read alike, the source gives them in different places.

Experiments:
[1] = particle size less than 250 micrometers; 35 wt % in mineral oil; added to 7.0 grams de-ionized water; compared with three other size ranges
Description: In this example, samples incorporating various size ranges of anhydrous magnesium chloride suspended in mineral oil at 35 wt % were evaluated for their ability to generate heat upon introduction into water.
The four size ranges of anhydrous magnesium chloride evaluated were: (1) 1000-1500 microns; (2) 600-1000 microns; (3) 250-600 microns; and (4) less than 250 microns. To produce the samples of anhydrous magnesium chloride in mineral oil, the various size ranges of anhydrous magnesium chloride powder (Magnesium Interface Inc. (Vancouver, B.C., Canada) were suspended at 35 wt % in mineral oil (available as Drakeol 7 LT NF from Penreco, Dickinson, Tex.). To produce the samples having anhydrous magnesium chloride with size ranges of 1000-1500 microns, 600-1000 microns, and 250-600 microns, the as received anhydrous magnesium chloride powder was hand screened into the size ranges desired and the powders collected. These powders were suspended at 35 wt % in mineral oil using a cowles mixing blade. […]
All four samples were then added to 7.0 grams de-ionized water and the resulting temperature rise was measured using a J type Thermocouple (available from Omega Engineering, Inc., Stamford, Conn.).

[2] = particle size 149-355 micrometers; 35 wt % in mineral oil; added to 7.0 grams de-ionized water; compared with four other size ranges
Description: In this example, samples incorporating various size ranges of anhydrous calcium chloride suspended in mineral oil at 35 wt % were evaluated for their ability to generate heat upon introduction into water.
The five size ranges of anhydrous calcium chloride evaluated were: (1) less than 149 microns; (2) 149-355 microns; (3) 710-1190 microns; (4) 1190-2000 microns; and (5) 2000-4000 microns. The samples of anhydrous calcium chloride (Dow Chemical, Midland, Mich.) were dispersed in mineral oil (available as Drakeol 7 LT NF from Penreco, Dickinson, Tex.). The as received anhydrous calcium chloride were screened dry using a Gilson Sonic Sieve (Gilson Company, Inc. Columbus, Ohio) to create two sizes, a 1190-2000 micron size and a 2000-4000 micron size. These powders were then suspended at 35 wt % in mineral oil to form a slurry using a cowles mixing blade. To achieve the smaller size distributions, the anhydrous calcium chloride powder required further processing. […]
All five samples were then individually added to 7.0 grams de-ionized water and the resulting temperature rise was measured using a Barnant Scanning Thermocouple (available from Therm-X of California, Hayward, Calif.).

Structure (SMILES) | rate of heat release (heat generation rate) [1] | rate of heat release (heat generation rate) [2]
[Cl-].[Cl-].[Mg+2] [anhydrous magnesium chloride, magnesium chloride] | highest rate | –
[Ca+2].[Cl-].[Cl-] [anhydrous calcium chloride, calcium chloride] | – | highest rate
